From ChEMBL document CHEMBL1201862, “PubChem BioAssay data set” (2004)
Activity calls are given as the source filed them.

How the values were obtained:
[1] = target: Eukaryotic translation initiation factor 4E (Mus musculus, UniProt P63073); assay: blockers of eIF4G binding by eIF4E – biochemical, TR-FRET, dose response (AID 855); type: functional;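 note: potency for disrupting eIF4E binding to eIF4GI seen as loss of FRET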
[2] = target: T1, Acyl-homoserine lactone acylase PvdQ (Pseudomonas aeruginosa (strain LESB58), UniProt Q9I194); assay: PvdQ acylase enzyme activity blockers – biochemical, fluorescence, plate reader and imaging, cherry-picks, dose response (AID 493231)
T1 sequence (Q9I194 whole entry): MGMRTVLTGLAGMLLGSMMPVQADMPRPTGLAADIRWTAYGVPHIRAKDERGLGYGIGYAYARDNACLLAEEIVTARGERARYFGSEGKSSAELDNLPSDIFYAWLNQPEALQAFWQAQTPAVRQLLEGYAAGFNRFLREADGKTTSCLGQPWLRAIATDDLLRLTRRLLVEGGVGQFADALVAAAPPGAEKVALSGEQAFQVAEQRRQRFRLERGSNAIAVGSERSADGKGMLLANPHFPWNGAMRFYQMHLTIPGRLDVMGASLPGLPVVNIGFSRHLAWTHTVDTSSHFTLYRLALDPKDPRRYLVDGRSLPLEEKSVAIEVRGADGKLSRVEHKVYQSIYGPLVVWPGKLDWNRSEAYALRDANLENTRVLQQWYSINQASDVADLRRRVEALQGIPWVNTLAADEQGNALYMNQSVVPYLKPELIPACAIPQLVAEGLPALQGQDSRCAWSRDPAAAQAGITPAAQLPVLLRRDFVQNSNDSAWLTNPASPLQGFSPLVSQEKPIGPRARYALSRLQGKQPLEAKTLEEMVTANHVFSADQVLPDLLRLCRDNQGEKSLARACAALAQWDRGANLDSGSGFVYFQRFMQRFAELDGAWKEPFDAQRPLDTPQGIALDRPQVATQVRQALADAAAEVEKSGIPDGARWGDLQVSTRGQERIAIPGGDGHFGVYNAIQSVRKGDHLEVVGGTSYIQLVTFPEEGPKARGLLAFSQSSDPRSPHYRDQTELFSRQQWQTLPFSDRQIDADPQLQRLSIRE

[3] = target: Induced myeloid leukemia cell differentiation protein Mcl-1 (Homo sapiens, UniProt Q07820); type: functional
Aminopeptidase N = target: T2, Aminopeptidase N (Plasmodium falciparum FcB1/Columbia, UniProt O96935); assay: malaria alanyl aminopeptidase activity blockers – biochemical, fluorogenic H-Leu-NHMec substrate, 1536-well (AID 1445); set-up: species or system Plasmodium falciparum 3D7, 3D7
T2 sequence (O96935 whole entry): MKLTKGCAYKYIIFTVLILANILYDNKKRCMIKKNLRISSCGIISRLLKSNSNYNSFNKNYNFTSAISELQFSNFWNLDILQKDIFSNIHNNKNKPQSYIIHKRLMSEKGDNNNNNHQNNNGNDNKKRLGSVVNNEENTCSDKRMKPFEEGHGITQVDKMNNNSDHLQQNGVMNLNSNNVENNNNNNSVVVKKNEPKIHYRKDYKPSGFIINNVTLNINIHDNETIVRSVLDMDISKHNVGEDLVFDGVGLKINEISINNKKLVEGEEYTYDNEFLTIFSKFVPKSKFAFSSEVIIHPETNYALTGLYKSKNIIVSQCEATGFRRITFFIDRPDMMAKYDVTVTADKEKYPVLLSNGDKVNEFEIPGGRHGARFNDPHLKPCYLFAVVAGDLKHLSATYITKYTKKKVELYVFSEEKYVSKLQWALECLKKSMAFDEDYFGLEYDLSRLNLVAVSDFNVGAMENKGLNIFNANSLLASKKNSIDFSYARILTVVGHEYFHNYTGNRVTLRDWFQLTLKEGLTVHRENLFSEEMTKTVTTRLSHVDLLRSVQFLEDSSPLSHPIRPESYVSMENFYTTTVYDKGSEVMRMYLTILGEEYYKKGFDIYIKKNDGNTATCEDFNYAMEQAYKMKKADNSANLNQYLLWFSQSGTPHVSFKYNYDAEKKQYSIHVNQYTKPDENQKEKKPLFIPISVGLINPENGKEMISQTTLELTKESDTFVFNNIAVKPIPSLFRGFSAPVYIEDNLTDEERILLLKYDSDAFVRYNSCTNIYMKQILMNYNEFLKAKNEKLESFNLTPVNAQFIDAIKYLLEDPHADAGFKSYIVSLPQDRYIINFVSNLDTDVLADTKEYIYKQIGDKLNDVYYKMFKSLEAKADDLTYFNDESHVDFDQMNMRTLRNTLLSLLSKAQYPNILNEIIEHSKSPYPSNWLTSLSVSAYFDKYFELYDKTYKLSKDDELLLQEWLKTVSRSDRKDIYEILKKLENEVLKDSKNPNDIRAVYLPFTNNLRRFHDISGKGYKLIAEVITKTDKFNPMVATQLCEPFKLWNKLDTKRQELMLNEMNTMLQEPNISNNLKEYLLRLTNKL

[4] = target: T3, Calpain-2 catalytic subunit (Sus scrofa, UniProt P43367); assay: m-calpain protease blockers, concentration series – biochemical, fluorogenic peptide substrate, dose response (AID 1420); type: functional
T3 sequence (P43367 whole entry): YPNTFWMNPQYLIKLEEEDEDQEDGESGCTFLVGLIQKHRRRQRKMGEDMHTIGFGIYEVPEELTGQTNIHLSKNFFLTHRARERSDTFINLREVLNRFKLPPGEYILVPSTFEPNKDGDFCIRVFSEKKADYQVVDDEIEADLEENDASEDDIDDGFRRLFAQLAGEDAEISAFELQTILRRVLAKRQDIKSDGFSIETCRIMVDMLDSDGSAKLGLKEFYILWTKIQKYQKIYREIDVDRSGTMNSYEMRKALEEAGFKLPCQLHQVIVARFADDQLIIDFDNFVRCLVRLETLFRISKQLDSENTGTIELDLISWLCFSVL

Protein RecA = target: T4, Protein RecA (Mycobacterium tuberculosis, UniProt P9WHJ3); assay: Fluorescence Cell-Free Homogeneous Dose Retest to Identify Inhibitors of RecA-Intein Splicing Activity. [Related pubchem assays (depositor defined):AID2097, AID2223, AID489010, AID492950]; type: functional
T4 sequence (P9WHJ3 whole entry): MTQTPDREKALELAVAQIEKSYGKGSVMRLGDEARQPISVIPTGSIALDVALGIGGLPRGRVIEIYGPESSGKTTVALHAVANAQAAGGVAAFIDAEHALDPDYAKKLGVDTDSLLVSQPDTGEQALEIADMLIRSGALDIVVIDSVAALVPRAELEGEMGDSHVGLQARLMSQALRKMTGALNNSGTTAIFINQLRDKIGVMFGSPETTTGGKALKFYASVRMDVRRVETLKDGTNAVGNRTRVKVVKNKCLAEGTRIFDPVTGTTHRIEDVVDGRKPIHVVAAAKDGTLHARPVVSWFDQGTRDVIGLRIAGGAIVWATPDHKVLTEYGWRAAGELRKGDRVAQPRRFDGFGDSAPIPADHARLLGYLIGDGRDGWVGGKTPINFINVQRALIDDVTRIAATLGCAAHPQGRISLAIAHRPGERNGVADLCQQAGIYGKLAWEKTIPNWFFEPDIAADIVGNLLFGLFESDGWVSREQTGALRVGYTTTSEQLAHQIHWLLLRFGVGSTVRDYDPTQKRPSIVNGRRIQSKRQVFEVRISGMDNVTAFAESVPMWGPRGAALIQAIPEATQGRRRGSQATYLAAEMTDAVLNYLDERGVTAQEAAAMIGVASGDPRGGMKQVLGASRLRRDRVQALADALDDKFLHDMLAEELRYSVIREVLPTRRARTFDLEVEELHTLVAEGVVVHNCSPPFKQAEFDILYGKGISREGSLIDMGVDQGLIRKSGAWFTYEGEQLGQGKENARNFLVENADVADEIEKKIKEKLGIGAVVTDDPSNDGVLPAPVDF

[5] = CCR5-tropic HIV-1 fusion blockers – cell-based, CCR5-tropic Env, dose response (AID 2279); type: functional
[6] = target: T5, Replicative DNA helicase DnaB (Mycobacterium tuberculosis, UniProt P9WMR3); assay: DnaB intein splicing inhibitors, dose response, biochemical, cell-free fluorescence (AID 449749); type: functional
T5 sequence (P9WMR3 whole entry): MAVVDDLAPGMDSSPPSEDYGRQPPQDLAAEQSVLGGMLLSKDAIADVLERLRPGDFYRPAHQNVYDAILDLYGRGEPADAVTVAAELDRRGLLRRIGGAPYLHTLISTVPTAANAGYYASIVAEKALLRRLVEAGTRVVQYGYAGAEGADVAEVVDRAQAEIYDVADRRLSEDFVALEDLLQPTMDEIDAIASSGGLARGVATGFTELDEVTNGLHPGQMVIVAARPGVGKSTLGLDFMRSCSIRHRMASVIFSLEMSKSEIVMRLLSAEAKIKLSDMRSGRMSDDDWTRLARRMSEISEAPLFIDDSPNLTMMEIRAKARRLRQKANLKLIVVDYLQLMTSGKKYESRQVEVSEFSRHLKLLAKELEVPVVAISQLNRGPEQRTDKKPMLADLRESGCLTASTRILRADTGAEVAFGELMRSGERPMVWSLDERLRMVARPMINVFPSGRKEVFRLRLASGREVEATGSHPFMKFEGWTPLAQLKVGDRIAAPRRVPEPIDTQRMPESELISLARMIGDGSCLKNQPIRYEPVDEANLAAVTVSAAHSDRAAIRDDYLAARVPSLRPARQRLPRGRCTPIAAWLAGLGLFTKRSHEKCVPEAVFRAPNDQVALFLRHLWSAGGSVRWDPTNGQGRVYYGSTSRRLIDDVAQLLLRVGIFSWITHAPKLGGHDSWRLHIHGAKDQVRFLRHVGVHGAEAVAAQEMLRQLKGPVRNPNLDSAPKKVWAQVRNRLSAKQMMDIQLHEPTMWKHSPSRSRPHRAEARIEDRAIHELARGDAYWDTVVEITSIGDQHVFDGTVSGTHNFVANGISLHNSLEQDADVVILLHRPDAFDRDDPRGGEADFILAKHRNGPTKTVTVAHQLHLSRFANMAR

[7] = A cytotoxicity screen of small molecule inhibitors of the PhoP region in Salmonella typhi identified in the primary screen. [Related pubchem assays: 1850, 1864, 1985 ]; type: functional
[8] = target: T6, Nuclear receptor subfamily 0 group B member 1 (Homo sapiens, UniProt P51843); assay: Luminescence-based cell-based high throughput dose response assay for inhibitors of the orphan nuclear receptor subfamily 0, group B, member 1 (DAX1; NR0B1). [Related pubchem assays (depositor defined):AID504766, AID504790]; type: functional
T6 sequence (P51843 whole entry): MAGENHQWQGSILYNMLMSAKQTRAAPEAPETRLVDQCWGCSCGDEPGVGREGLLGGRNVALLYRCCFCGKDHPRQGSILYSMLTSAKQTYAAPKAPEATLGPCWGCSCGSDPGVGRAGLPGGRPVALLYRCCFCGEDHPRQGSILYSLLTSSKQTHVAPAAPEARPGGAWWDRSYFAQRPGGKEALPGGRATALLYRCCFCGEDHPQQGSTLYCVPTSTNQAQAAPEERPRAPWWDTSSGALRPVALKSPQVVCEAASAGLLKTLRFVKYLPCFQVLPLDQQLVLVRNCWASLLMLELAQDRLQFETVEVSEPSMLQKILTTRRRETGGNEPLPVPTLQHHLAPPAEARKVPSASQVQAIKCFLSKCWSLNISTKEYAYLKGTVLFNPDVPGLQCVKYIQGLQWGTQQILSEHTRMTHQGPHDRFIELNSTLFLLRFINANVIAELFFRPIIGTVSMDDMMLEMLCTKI

[9] = HEK-293T cell viability reduction – luminescence, B-cell screen hits, cytotoxicity control for BCR NF-kB inhibitor project, dose response (AID 489021); type: functional, cell-based;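 note: HEK-293T cells carrying an NF-kB luciferase reporter; cells exposed to compound for about 14 hours before viability readout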
HEK293 = assay: cells; type: functional, cell-based; conditions: Homo sapiens
[10] = target: T7, Rac GTPase-activating protein 1 (Homo sapiens, UniProt Q9H0H5); assay: blockers of MgcRacGAP-driven Rac1 GTP hydrolysis – biochemical, ADP Hunter fluorescence, primary and confirmatory, confirmation (AID 624330); type: functional
T7 sequence (Q9H0H5 whole entry): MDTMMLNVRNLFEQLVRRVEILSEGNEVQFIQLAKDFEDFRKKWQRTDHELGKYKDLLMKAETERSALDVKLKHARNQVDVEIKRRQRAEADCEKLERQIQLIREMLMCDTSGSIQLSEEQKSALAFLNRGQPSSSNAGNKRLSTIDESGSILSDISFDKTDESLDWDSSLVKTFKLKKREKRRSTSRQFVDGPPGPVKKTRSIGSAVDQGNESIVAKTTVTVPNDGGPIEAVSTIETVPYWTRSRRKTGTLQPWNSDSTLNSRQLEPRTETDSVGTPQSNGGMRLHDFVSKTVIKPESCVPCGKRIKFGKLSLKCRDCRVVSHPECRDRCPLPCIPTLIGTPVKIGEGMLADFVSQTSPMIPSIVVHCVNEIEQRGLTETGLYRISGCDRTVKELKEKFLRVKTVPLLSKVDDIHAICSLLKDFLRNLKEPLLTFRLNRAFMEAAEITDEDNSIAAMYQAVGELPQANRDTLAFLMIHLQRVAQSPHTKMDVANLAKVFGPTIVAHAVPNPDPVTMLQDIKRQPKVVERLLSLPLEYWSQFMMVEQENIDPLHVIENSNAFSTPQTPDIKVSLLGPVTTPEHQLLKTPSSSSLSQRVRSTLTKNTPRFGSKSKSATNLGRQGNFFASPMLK

Sequence of Eukaryotic translation initiation factor 4E (P63073 whole entry): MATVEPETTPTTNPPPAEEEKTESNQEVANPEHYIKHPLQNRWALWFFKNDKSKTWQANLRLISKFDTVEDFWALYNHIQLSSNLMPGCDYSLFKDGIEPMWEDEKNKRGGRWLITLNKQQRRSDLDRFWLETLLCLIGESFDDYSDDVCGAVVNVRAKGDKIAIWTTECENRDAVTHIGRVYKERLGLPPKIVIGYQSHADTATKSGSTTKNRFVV
Sequence of Induced myeloid leukemia cell differentiation protein Mcl-1 (Q07820 whole entry): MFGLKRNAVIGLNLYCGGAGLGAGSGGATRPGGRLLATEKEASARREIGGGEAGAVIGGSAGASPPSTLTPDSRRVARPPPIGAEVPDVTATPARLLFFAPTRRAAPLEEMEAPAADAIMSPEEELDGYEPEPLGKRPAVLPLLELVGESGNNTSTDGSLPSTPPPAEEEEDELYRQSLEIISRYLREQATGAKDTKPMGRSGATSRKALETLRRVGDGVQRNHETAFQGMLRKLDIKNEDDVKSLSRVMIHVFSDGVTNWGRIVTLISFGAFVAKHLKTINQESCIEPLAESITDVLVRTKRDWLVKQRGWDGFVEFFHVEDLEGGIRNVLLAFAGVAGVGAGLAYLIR

Structure (SMILES): Sc1nnc(-c2ccco2)n1/N=C/c1ccc(Cl)cc1Cl
- IC50 [1]: > 64 µM (inactive)

Structure (SMILES): O=C1C=C(c2cccc(Br)c2)C[C@@H](c2ccc(F)cc2)C1
- AC50 [2]: 48.9 µM (active)

Structure (SMILES): N#Cc1cc(-c2ccccc2)cnc1Cl
- AC50 [2]: 6.29 µM (active)

Structure (SMILES): O=C(O)CCc1nc(-c2ccc(Cl)cc2)no1
- AC50 [2]: 16.1 µM (active)

Structure (SMILES): COc1cc(/C=C2/SC(=S)NC2=O)ccc1OS(=O)(=O)c1ccc(C)cc1
- IC50 [3]: 3.44 µM (active)
- IC50 (Aminopeptidase N): 51.8 µM (active)
- IC50 [4]: 13.4 µM (not active)
- EC50 (Protein RecA): 11.9 µM (active)
- IC50 [5]: 10.3 µM (active)
- AC50 [6]: 3.21 µM (active)

Structure (SMILES): C=C(C)Cn1c(SCC#N)nc2ccccc2c1=O
- EC50 [7]: > 50 µM (active)

Structure (SMILES): O=C1C2C3C=CC(C4CC34)C2C(=O)N1Cc1ccco1 (centres undefined)
- AC50 [2]: 12.4 µM (active)

Structure (SMILES): CCN(CC)c1ccc(CNc2nc3ccccc3n2C)cc1
- EC50 [7]: > 50 µM (active)

Structure (SMILES): Cn1c(=O)n(C)c2cc(C(=O)Nc3ccc4c(c3)OCO4)ccc21
- IC50 [8]: 4.57 µM (active)
- IC50 [9]: > 80 µM (inactive)
- IC50 (HEK293): > 67.5 µM (inactive)

Structure (SMILES): Cc1ccc(NC(=O)CN(C)C2CCCCC2)cc1Br
- IC50 [10]: 137 µM (active)
- EC50 [7]: > 50 µM (active)

Structure (SMILES): COc1ccc(N2CCN(C(CNC(=O)c3ccc4c(c3)OCO4)c3ccco3)CC2)cc1 (centres undefined)
- EC50 [7]: > 50 µM (active)
